Measured values as given in patent EP4624497A1, “PHOSPHOEN[…] PROBE, PREPARATION METHOD THEREFOR AND APPLICATION THEREOF” (priority 2022, dated 2024).

Legend:
Assay in all cases: phosphoenolpyruvate titration of purified optical probe (fluorescence ratio)
Type in all cases: binding
Conditions in all cases: phosphoenolpyruvate 0 to 10 mM, purified probe treated 10 minutes, ex 420/485 nm, em 528 nm
[1] = biological target: T1, Thermus thermophilus TtPFK optical probe 254/255-TtPFK-I253G/Q254L/R255L/G256F-cpYFP-Y1P (Thermus thermophilus, UniProt P21777, form not given/G256F/I253G/Q254L/R255L)
T1 construct: the numbering corresponds to the full length of the phosphoenolpyruvate-sensitive polypeptide; His-tag; made in house; host or cells: E. coli BL21 (DE3)
Method: (§1) • 1. The expression vectors (for example, a phosphoenolpyruvate optical probe expression vector based on pCDF.) were transformed into BL21 (DE3) cells, incubated inverted overnight, and the clones were picked from the plates into 250 mL Erlenmeyer flasks, placed in a shaker at 37 °C and incubated at 220 rpm to OD=0.4-0.8, then 1/1000 (V/V) of IPTG (1 M) was added to induce expression at 18 °C for 24-36 hours. • 2. Upon completion of inducible expression, cells were harvested by centrifugation at 4000 rpm for 30 min, resuspended in 50 mM phosphate buffer and disrupted ultrasonically until the broth were clear, centrifuged at 9600 rpm at 4 °C for 20 min. • 3. The centrifuged supernatant was used to obtain protein by purification through a self-packed nickel column affinity chromatography column, and the protein obtained after nickel column affinity chromatography was further used to obtain protein dissolved in 100 mM HEPES buffer (pH 7.4). • 4. After purified proteins were subjected to SDS-PAGE, probes were diluted to a protein solution having a final concentration of 0.2-5 µM using assay buffer (100 mm HEPES, 100 mM NaCl, pH 7.4). Phosphoenolpyruvate was formulated as a stock solution at a final concentration of 50 mM with the assay buffer (100 mM HEPES, 100 mM NaCl, pH 7.4). • 5. 100 µl 1 µM of protein solution was taken, incubated at 37 °C for 10 min, phosphoenolpyruvate was added for titration, and the fluorescence intensity of 528 nm emission after 420 nm and 485 nm fluorescence excitation of the protein was measured. The fluorescence excitation and emission determination of the samples were done using a multifunctional fluorescence microplate reader. • 6. 100 µl 1 µM of protein solution was taken, incubated at 37 °C for 10 min, and phosphoenolpyruvate was added to determine the absorption and fluorescence spectra of the proteins. Determination of the absorption and fluorescence spectra of the samples was done by spectrophotometer and spectrofluorometer.
(§2) The recombinant plasmids of the mutation library were transformed into BL21 (DE3) to induce expression, and the purified probe protein was subjected to phosphoenolpyruvate-responsive screening, dividing the detection signal of the fusion fluorescent protein containing 2 mM phosphoenolpyruvate by that of the fusion fluorescent protein without phosphoenolpyruvate. […]

[2] = biological target: T2, Thermus thermophilus TtPFK optical probe 254/255-TtPFK-I253K/Q254L/R255L/G256F-cpYFP-Y1S, SEQ ID NO: 12 (Thermus thermophilus, UniProt P21777, form not given/G256F/I253K/Q254L/R255L)
T2 construct: the numbering corresponds to the full length of the phosphoenolpyruvate-sensitive polypeptide; His-tag; made in house; host or cells: E. coli BL21 (DE3)
Method: as §1, §2

[3] = biological target: T3, Thermus thermophilus TtPFK optical probe 254/255-TtPFK-cpYFP variant, TtPFK I253N/Q254L/R255L/G256F, cpYFP Y1S/N246F (Thermus thermophilus, UniProt P21777, form not given/G256F/I253N/Q254L/R255L)
T3 construct: the numbering corresponds to the full length of the phosphoenolpyruvate-sensitive polypeptide; His-tag; made in house; host or cells: E. coli BL21 (DE3)
Method: as §1, §2

[4] = biological target: T4, Thermus thermophilus TtPFK optical probe 254/255-TtPFK-cpYFP variant, TtPFK I253V/Q254L/R255F/G256Y, cpYFP Y1H/N246F (Thermus thermophilus, UniProt P21777, form not given/G256Y/I253V/Q254L/R255F)
T4 construct: His-tag; made in house; host or cells: E. coli BL21 (DE3)
Method: as §1, §2

[5] = biological target: T5, Thermus thermophilus TtPFK optical probe 254/255-TtPFK-cpYFP variant, TtPFK I253V/Q254L/R255L/G256H, cpYFP Y1S (Thermus thermophilus, UniProt P21777, form not given/G256H/I253V/Q254L/R255L)
T5 construct: the numbering corresponds to the full length of the phosphoenolpyruvate-sensitive polypeptide; His-tag; made in house; host or cells: E. coli BL21 (DE3)
Method: as §1, §2

[6] = biological target: T6, Thermus thermophilus TtPFK optical probe 254/255-TtPFK-cpYFP variant, TtPFK I253Y/Q254I (Thermus thermophilus, UniProt P21777, form not given/I253Y/Q254I/Q254N)
T6 construct: the numbering corresponds to the full length of the phosphoenolpyruvate-sensitive polypeptide; His-tag; made in house; host or cells: E. coli BL21 (DE3)
Method: as §1, §2

[7] = biological target: T7, Thermus thermophilus TtPFK optical probe 254/255-TtPFK-cpYFP variant, TtPFK Q254L/R255L/G256H, cpYFP Y1S (Thermus thermophilus, UniProt P21777, form not given/G256H/Q254L/R255L)
T7 construct: the numbering corresponds to the full length of the phosphoenolpyruvate-sensitive polypeptide; His-tag; made in house; host or cells: E. coli BL21 (DE3)
Method: as §1, §2

[8] = biological target: T8, Thermus thermophilus TtPFK optical probe 254/255-TtPFK-cpYFP variant, TtPFK Q254V/R255I/G256H, cpYFP N246W (Thermus thermophilus, UniProt P21777, form not given/G256H/Q254V/R255I)
T8 construct: the numbering corresponds to the full length of the phosphoenolpyruvate-sensitive polypeptide; His-tag; made in house; host or cells: E. coli BL21 (DE3)
Method: as §1, §2

[9] = biological target: T9, Thermus thermophilus TtPFK optical probe 254/256-TtPFK-I253Q/Q254L/G256V/G257L-cpYFP-Y1T/N246F (Thermus thermophilus, UniProt P21777, form not given/G256V/G257L/I253Q/Q254L)
T9 construct: the numbering corresponds to the full length of the phosphoenolpyruvate-sensitive polypeptide; His-tag; made in house; host or cells: E. coli BL21 (DE3)
Method: as §1, §2

[10] = biological target: T10, Thermus thermophilus TtPFK optical probe 254/256-TtPFK-cpYFP variant, TtPFK I253D/Q254L/G256V/G257L, cpYFP Y1T/N246F (Thermus thermophilus, UniProt P21777, form not given/G256V/G257L/I253D/Q254L)
T10 construct: the numbering corresponds to the full length of the phosphoenolpyruvate-sensitive polypeptide; His-tag; made in house; host or cells: E. coli BL21 (DE3)
Method: as §1, §2

[11] = biological target: T11, Thermus thermophilus TtPFK optical probe 254/256-TtPFK-cpYFP variant, TtPFK I253S/Q254L/G256V/G257L, cpYFP Y1T/N246F (Thermus thermophilus, UniProt P21777, form not given/G256V/G257L/I253S/Q254L)
T11 construct: the numbering corresponds to the full length of the phosphoenolpyruvate-sensitive polypeptide; His-tag; made in house; host or cells: E. coli BL21 (DE3)
Method: as §1, §2

[12] = biological target: T12, Thermus thermophilus phosphofructokinase TtPFK (SEQ ID NO: 1) optical probe 254/255-TtPFK-cpYFP, no mutation, SEQ ID NO: 10 (Thermus thermophilus, UniProt P21777)
T12 construct: His-tag; made in house; host or cells: E. coli BL21 (DE3)
Method: as §1, §2

[13] = biological target: T13, Thermus thermophilus phosphofructokinase TtPFK (SEQ ID NO: 1) optical probe 254/256-TtPFK-cpYFP, no mutation (Thermus thermophilus, UniProt P21777, form not given/R255N)
T13 construct: the numbering corresponds to the full length of the phosphoenolpyruvate-sensitive polypeptide; His-tag; made in house; host or cells: E. coli BL21 (DE3)
Method: as §1, §2

C=C(OP(=O)(O)O)C(=O)O [phosphoenolpyruvate, Phosphoenolpyruvate]
Kd [1]: 30.9 µM
Kd [2]: 17.5 µM
Kd [3]: 9.66 µM
Kd [4]: 81.7 µM
Kd [5]: 5.64 µM
Kd [6]: 1.55 µM
Kd [7]: 8.5 µM
Kd [8]: 11.4 µM
Kd [9]: 13.1 µM
Kd [10]: 13.4 µM
Kd [11]: 8.93 µM
Kd [12]: 0.8 µM
Kd [13]: 2.15 µM
